Measurements from patent US20190055590A1, “REGULARLY ARRANGED SPHEROIDS HAVING EQUAL SIZES AND USE THEREOF” (GAIA BioMedicine Inc., priority 2016, published 2019).

Experiments:
CT26 GFP+ cells [1] = settings: 384-well plate, row with EDTA added (FIG. 1)
Protocol: 1. Proliferate CT26 GFP^+ cells to a subconfluent or confluent state, then remove the culture medium by suction, and then wash the cells with phosphate buffered saline (PBS, Invitrogen). 2. Remove PBS, then add a 0.05% trypsin solution [0.25% trypsin, 1 mmol/L EDTA•4Na (Invitrogen), diluted 5-fold with PBS], and allow the reaction under the conditions of 37° C., 5% CO2, and 95% air until cells are separated from the dish. 3. Add 10% FBS-RPMI 1640 to suspend the cells, and collect them. 4. Perform centrifugation (400 g, 3 minutes) at 4° C., and then re-suspend the precipitates (cells) in 10% FBS-RPMI 1640. 5. Mix a part of the cell suspension with 0.4% trypan blue solution (Sigma-Aldrich), and count live cells under a phase contrast microscope by using a cell counting plate (OneCell Counter, OneCell Inc.). 6. In the case of 2D culture, dilute the cell suspension with 10% FBS-0.1% DMSO-RPMI 1640 to 3.0×10^4 cells/mL, and inoculate the cells on a culture plate (ViewPlate-384, PerkinElmer) in a volume of 20 μL/well using BIOMEK (registered trademark) NXP (BECKMAN COULTER). 7. […]
1. Observe morphology of the spheroids by 2 types of methods, in a bright field and with fluorescence, by using IN Cell Analyzer 2000 (GE Healthcare) 72 Hours after the treatment with the drug. […] Evaluate the spheroids on the basis of the total fluorescence amount (density×area) obtained from GFP as an index. […]

CT26 GFP+ cells [2] = experiment: Tertiary screening: inhibition of spheroid formation, 2D vs 3D culture on 96 plate, ATP assay; assay type: cell-based; settings: 96-well U-shaped bottom plate, pre-treatment or post-treatment
Protocol: Inoculation onto 96 Plate 1. […] 2. […] 3. […] 4. […] 5. […] 6. […] 7. […] 8. […] 1. Serially dilute a compound from the highest concentration of 20 μM at a common ratio of 1/10 for 7 doses (1% DMSO) with the medium. 2. Subsequently, add 10 μL of the serially diluted compound to the cell plate after the inoculation. 3. As for addition time of the drug, add the drug immediately after the inoculation (pre-treatment), or one day after the inoculation (post-treatment). On the final day of the evaluation, add CellTiter-Glo (registered trademark) 3D cell Viability Assay in the same volume as that of the culture volume, and 15 to 30 minutes thereafter, perform pipetting. Subsequently, transfer 120 μL of the cell lysate to Black Plate as required, and measure luminescence with a luminometer (Enspire etc.).

[3] = tested on: peritoneal dissemination (CT26 GFP+ cells); experiment: In vivo test: peritoneal dissemination after intraperitoneal transfer of CT26 GFP+ cells; design: species or system male BALB/c mice; settings: mice, comparison with the vehicle group on the final day (Tukey-Kramer HSD test)
Source text: 1. Use male BALB/c mice (henceforth referred to as mouse or mice, 6 to 8 weeks old at the time of use). 2. Put the mice in a plastic cage (W 136 mm×L 208 mm×H 115 mm) of which bottom is covered with a sterilized floor covering (Paper Clean, Japan SLC, Inc.) in a number of mice not larger than 5 mice per one cage until they are used for the experiments. 3. Allow the mice to ingest solid feed CRF-1 (Oriental Yeast Co., Ltd.) and tap water of water bottle ad libitum during the breeding period. 4. Perform individual identification of the mice by ear punching at the time of arrival of the mice (identification number starts from 01). 1. […] 2. […] 3. […] 4. […] 5. Inject 0.2 mL of the cell suspension into the abdominal cavity of each mouse (2.0×10^6 cells/body) by using a syringe with 26 G hypodermic needle (TERUMO CORP.). […] Spread the extracted alimentary canal on a 100-mm dish, and obtain images of the total alimentary canal in a bright field and with fluorescence by using BZ9000. […] On the last day of the evaluation, sacrifice the mice by cervical dislocation, open up the abdomen by midline incision, and collect the ascites reserved in the abdominal cavity with absorbent cotton of which weight is measured beforehand. […]

O=C(O)CN(CCN(CC(=O)O)CC(=O)O)CC(=O)O [EDTA]
spheroid formation (CT26 GFP+ cells [1]): no spheroid formation

O=C(NOC[C@H](O)CO)c1ccc(F)c(F)c1Nc1ccc(I)cc1F [PD0325901]
ability to inhibit spheroid formation (CT26 GFP+ cells [2]): high ability to inhibit spheroid formation
effect on peritoneal dissemination (fluorescence amount emitted from the alimentary canal extracted on the last evaluation day) ([3]; FIG. 6): confirmed in vivo
effect on peritoneal dissemination (weight of the ascites collected on the last evaluation day) ([3]; FIG. 7): confirmed in vivo
